# Measurements taken from patent US9199922B2, “Dihalophenoxyphenylamidines and use thereof as fungicides” (BAYER INTELLECTUAL PROPERTY GMBH, priority 2007, dated 2015).
# Like-named read-outs stand apart in the source and are kept apart here.
# Test: logP determination (acidic / neutral)
# Format: physicochemical
# [1] = pH 2.3, read-out: log P (pH 2.3)
SMILES,logP acidic,logP neutral (neutral),"logP (neutral, read-out: logP neutral)",logP [1],log P (pH 2.3) (pH 2.3)
CCN(C)C=Nc1cc(C)c(Oc2ccc(Cl)c(Br)c2)cc1C [Compound 15],2.23,6.1,–,–,–
CCN(C)C=Nc1cc(C)c(Oc2cc(Br)cc(Br)c2)cc1C [Compound 4],2.5,6,–,–,–
Cc1cc(Oc2cc(F)cc(Cl)c2)c(C)cc1N=CN1CCCCC1 [Compound 9],2.42,6.3,–,–,–
Cc1cc(Oc2cc(Br)cc(Br)c2)c(C)cc1N=CN(C)C(C)C [Compound 5],2.62,6.4,–,–,–
CCCN(C)C=Nc1cc(C)c(Oc2ccc(Cl)c(Br)c2)cc1C [Compound 17],2.64,6.6,–,–,–
Cc1cc(Oc2ccc(Cl)c(Br)c2)c(C)cc1N=CN1CCCCC1 [Compound 16],2.66,6.9,–,–,–
CCCN(C)C=Nc1cc(C)c(Oc2cc(F)cc(Br)c2)cc1C [Compound 14],2.37,7.4,–,–,–
Cc1cc(Oc2cc(F)cc(Br)c2)c(C)cc1N=CN1CCCCC1 [Compound 12],2.55,6.5,–,–,–
CCCN(C)C=Nc1cc(C)c(Oc2cc(F)cc(I)c2)cc1C [Compound 20],2.61,6.6,–,–,–
CCN(C)C=Nc1cc(C)c(Oc2cc(F)cc(Cl)c2)cc1C [Compound 8],2.21,5.6,–,–,–
CCN(C)C=Nc1cc(C)c(Oc2cc(Cl)cc(Br)c2)cc1C [Compound 6],2.56,6.4,–,–,–
CCCN(C)C=Nc1cc(C)c(Oc2cc(F)cc(Cl)c2)cc1C [Compound 11],2.39,6.1,–,–,–
CCN(C)C=Nc1cc(C)c(Oc2ccc(F)c(F)c2)cc1C [Compound 2],2.37,6.2,–,–,–
Cc1cc(Oc2cc(Cl)cc(Br)c2)c(C)cc1N=CN(C)C(C)C [Compound 7],2.7,6.8,–,–,–
CCN(C)C=Nc1cc(C)c(Oc2ccc3c(c2)CCCC3)cc1C [Compound 13],2.37,5.7,–,–,–
CCN(C)C=Nc1cc(C)c(Oc2cc(F)cc(Br)c2)cc1C [Compound 3],2.29,5.8,–,–,–
Cc1cc(Oc2ccc(Cl)c(Br)c2)c(C)cc1N=CN1CCCC1 [Compound 18],2.56,6.6,–,–,–
Cc1cc(Oc2cc(F)cc(Cl)c2)c(C)cc1N=CN1CCCC1 [Compound 10],2.26,5.6,–,–,–
"Cc1cc([N+](=O)[O-])c(C)cc1Oc1ccc(Cl)c(Cl)c1 [4-(3,4-Dichlorophenoxy)-2,5-dimethylnitrobenzene]",–,–,–,–,5.19
"Cc1cc(Oc2ccc(Cl)c(Cl)c2)c(C)cc1N [4-(3,4-Dichlorophenoxy)-2,5-dimethylaniline]",–,–,–,3.51,–

# Next, values leading:
logP acidic,logP neutral (neutral),"logP (neutral, read-out: logP neutral)",logP [1],log P (pH 2.3) (pH 2.3),SMILES
2.39,–,–,–,–,Cc1cc(Oc2ccc(Br)c(F)c2)c(C)cc1N=CN1CCCCC1 [Compound 31]
2.03,5.79,–,–,–,Cc1cc(Oc2cc(F)cc(F)c2)c(C)cc1N=CN1CCCCC1 [Compound 35]
2.48,6.93,–,–,–,Cc1cc(Oc2ccc(Br)c(Br)c2)c(C)cc1N=CN1CCCCC1 [Compound 39]
2.25,–,–,–,–,Cc1cc(Oc2cc(F)cc(Br)c2)c(C)cc1N=CN(C)CC1CC1 [Compound 40]
2.4,6.2,–,–,–,Cc1cc(Oc2ccc(Cl)c(I)c2)c(C)cc1N=CN(C)C(C)C [Compound 24]
2.2,–,–,–,–,CCN(C)C=Nc1cc(C)c(Oc2ccc(Br)c(F)c2)cc1C [Compound 32]
–,–,6.07,2.48,–,"CCN(C)C=Nc1cc(C)c(Oc2ccc(Cl)c(Cl)c2)cc1C [Compound 30, N-Ethyl-N-methyl-N′-[4-(3,4-dichlorophenoxy)-2,5-dimethylphenyl]formamidine]"
2.52,–,–,–,–,Cc1cc(Oc2ccc(Cl)c(I)c2)c(C)cc1N=CN1CCCCC1 [Compound 26]
2.04,5.54,–,–,–,CCCN(C)C=Nc1cc(C)c(Oc2cc(F)cc(F)c2)cc1C [Compound 33]
2.29,5.7,–,–,–,CCN(C)C=Nc1cc(C)c(Oc2ccc(F)c(Br)c2)cc1C [Compound 23]
2.4,–,–,–,–,CCN(C)C=Nc1cc(C)c(Oc2cc(F)cc(I)c2)cc1C [Compound 19]
2.24,6.3,–,–,–,C=CCN(C)C=Nc1cc(C)c(Oc2ccc(Br)c(Br)c2)cc1C [Compound 37]
2.46,6.6,–,–,–,Cc1cc(Oc2cc(F)cc(I)c2)c(C)cc1N=CN1CCCC1 [Compound 22]
2.67,6.1,–,–,–,CCN(C)C=Nc1cc(C)c(Oc2ccc(Br)c(I)c2)cc1C [Compound 27]
2.29,–,–,–,–,CCN(C)C=Nc1cc(C)c(Oc2ccc(Cl)c(I)c2)cc1C [Compound 25]
2.59,5.8,–,–,–,Cc1cc(Oc2cc(F)cc(Br)c2)c(C)cc1N=CN1CC(C)OC(C)C1 (stereo not shown) [Compound 29]
2.91,6.9,–,–,–,CCCN(C)C=Nc1cc(C)c(Oc2cc(F)cc(Br)c2)cc1C [Compound 28]
2.45,6.62,–,–,–,CCCN(C)C=Nc1cc(C)c(Oc2ccc(Br)c(Br)c2)cc1C [Compound 38]
2.6,6.8,–,–,–,Cc1cc(Oc2cc(F)cc(I)c2)c(C)cc1N=CN1CCCCC1 [Compound 21]
